Work on `CCCOC(=O)c1cc(O)c(O)c(O)c1` yielded a solubility (mole fraction) (in acetone, 293.15 K) of 0.291, a solubility (mole fraction) (in acetone, 298.15 K) of 0.311 and a solubility (mole fraction) (in acetone, 303.15 K) of 0.33. The solubility (mole fraction) (in acetone, 308.15 K) was 0.35, the solubility (mole fraction) (in acetone, 313.15 K) was 0.369 and the solubility (mole fraction) (in acetone, 318.15 K) was 0.387. The solubility (mole fraction) (in acetone, 323.15 K) was 0.404, the solubility (mole fraction) (in acetone, 328.15 K) was 0.412 and the solubility (mole fraction) (in acetone, 333.15 K) was 0.419. It also gave a solubility (mole fraction) (in ethanol, 293.15 K) of 0.182, a solubility (mole fraction) (in ethanol, 298.15 K) of 0.201 and a solubility (mole fraction) (in ethanol, 303.15 K) of 0.222. For the same molecule, the solubility (mole fraction) (in ethanol, 308.15 K) was 0.244, the solubility (mole fraction) (in ethanol, 313.15 K) was 0.266 and the solubility (mole fraction) (in ethanol, 318.15 K) was 0.288. The solubility (mole fraction) (in ethanol, 323.15 K) was 0.311, the solubility (mole fraction) (in ethanol, 328.15 K) was 0.323 and the solubility (mole fraction) (in ethanol, 333.15 K) was 0.334. For the same molecule, the solubility (mole fraction) (in ethyl acetate, 293.15 K) was 0.222, the solubility (mole fraction) (in ethyl acetate, 298.15 K) was 0.24 and the solubility (mole fraction) (in ethyl acetate, 303.15 K) was 0.258. It also gave a solubility (mole fraction) (in ethyl acetate, 308.15 K) of 0.276, a solubility (mole fraction) (in ethyl acetate, 313.15 K) of 0.295 and a solubility (mole fraction) (in ethyl acetate, 318.15 K) of 0.314. It also gave a solubility (mole fraction) (in ethyl acetate, 323.15 K) of 0.333, a solubility (mole fraction) (in ethyl acetate, 328.15 K) of 0.343 and a solubility (mole fraction) (in ethyl acetate, 333.15 K) of 0.353. For the same molecule, the solubility (mole fraction) (in isobutanol, 293.15 K) was 0.189, the solubility (mole fraction) (in isobutanol, 298.15 K) was 0.209 and the solubility (mole fraction) (in isobutanol, 303.15 K) was 0.229. For the same molecule, the solubility (mole fraction) (in isobutanol, 308.15 K) was 0.25, the solubility (mole fraction) (in isobutanol, 313.15 K) was 0.272 and the solubility (mole fraction) (in isobutanol, 318.15 K) was 0.295. For the same molecule, the solubility (mole fraction) (in isobutanol, 323.15 K) was 0.319, the solubility (mole fraction) (in isobutanol, 328.15 K) was 0.331 and the solubility (mole fraction) (in isobutanol, 333.15 K) was 0.344. It also gave a solubility (mole fraction) (in isopropanol, 293.15 K) of 0.253, a solubility (mole fraction) (in isopropanol, 298.15 K) of 0.273 and a solubility (mole fraction) (in isopropanol, 303.15 K) of 0.293. The solubility (mole fraction) (in isopropanol, 308.15 K) was 0.314, the solubility (mole fraction) (in isopropanol, 313.15 K) was 0.336 and the solubility (mole fraction) (in isopropanol, 318.15 K) was 0.359. The solubility (mole fraction) (in isopropanol, 323.15 K) was 0.383, the solubility (mole fraction) (in isopropanol, 328.15 K) was 0.396 and the solubility (mole fraction) (in isopropanol, 333.15 K) was 0.409. For the same molecule, the solubility (mole fraction) (in methanol, 293.15 K) was 0.226, the solubility (mole fraction) (in methanol, 298.15 K) was 0.242 and the solubility (mole fraction) (in methanol, 303.15 K) was 0.258. It also gave a solubility (mole fraction) (in methanol, 308.15 K) of 0.276, a solubility (mole fraction) (in methanol, 313.15 K) of 0.295 and a solubility (mole fraction) (in methanol, 318.15 K) of 0.316. The solubility (mole fraction) (in methanol, 323.15 K) was 0.339, the solubility (mole fraction) (in methanol, 328.15 K) was 0.351 and the solubility (mole fraction) (in methanol, 333.15 K) was 0.363. The solubility (mole fraction) (in methyl acetate, 293.15 K) was 0.244, the solubility (mole fraction) (in methyl acetate, 298.15 K) was 0.264 and the solubility (mole fraction) (in methyl acetate, 303.15 K) was 0.285. For the same molecule, the solubility (mole fraction) (in methyl acetate, 308.15 K) was 0.306, the solubility (mole fraction) (in methyl acetate, 313.15 K) was 0.329 and the solubility (mole fraction) (in methyl acetate, 318.15 K) was 0.351. For the same molecule, the solubility (mole fraction) (in methyl acetate, 323.15 K) was 0.375, the solubility (mole fraction) (in methyl acetate, 328.15 K) was 0.39 and the solubility (mole fraction) (in methyl acetate, 333.15 K) was 0.402. It also gave a solubility (mole fraction) (in n-butanol, 293.15 K) of 0.243, a solubility (mole fraction) (in n-butanol, 298.15 K) of 0.259 and a solubility (mole fraction) (in n-butanol, 303.15 K) of 0.275. The solubility (mole fraction) (in n-butanol, 308.15 K) was 0.293, the solubility (mole fraction) (in n-butanol, 313.15 K) was 0.312 and the solubility (mole fraction) (in n-butanol, 318.15 K) was 0.333. It also gave a solubility (mole fraction) (in n-butanol, 323.15 K) of 0.356, a solubility (mole fraction) (in n-butanol, 328.15 K) of 0.368 and a solubility (mole fraction) (in n-butanol, 333.15 K) of 0.381. It also gave a solubility (mole fraction) (in n-propanol, 293.15 K) of 0.264, a solubility (mole fraction) (in n-propanol, 298.15 K) of 0.283 and a solubility (mole fraction) (in n-propanol, 303.15 K) of 0.302. It also gave a solubility (mole fraction) (in n-propanol, 308.15 K) of 0.321, a solubility (mole fraction) (in n-propanol, 313.15 K) of 0.34 and a solubility (mole fraction) (in n-propanol, 318.15 K) of 0.36. For the same molecule, the solubility (mole fraction) (in n-propanol, 323.15 K) was 0.382, the solubility (mole fraction) (in n-propanol, 328.15 K) was 0.394 and the solubility (mole fraction) (in n-propanol, 333.15 K) was 0.406.

Source: BigSolDB 2.1
